Experiments:
Assay type in all cases: cell-based
punta toro virus = assay: microbe, parasite or virus in culture; settings: Vero, virus m, Vero cells
coxsakie virus B4 = assay: organism not typed; settings: Vero
sindbis virus = assay: microbe, parasite or virus in culture; settings: Vero, virus k, Vero cells
para-influenza-3 virus = assay: organism not typed; settings: Vero, virus i, Vero cells
reovirus-1 = assay: organism not typed; settings: Vero, virus j, reovirus-1, Vero cells
coxsackie virus B4 = assay: microbe, parasite or virus in culture; settings: Enterovirus B, B4, HeLa, coxsackie virus B4, HeLa cells
influenza A H3N2 subtype = assay: Antiviral assay, inhibition of virus-induced cytopathic effect, MDCK cells
influenza A H1N1 subtype = assay: as above
[1] = tested on: herpes simplex virus-2 (G); assay: microbe, parasite or virus in culture; settings: Human alphaherpesvirus 2, HEL, virus e, HEL cells
[2] = tested on: herpes simplex virus-1(KOS); assay: microbe, parasite or virus in culture; settings: Human alphaherpesvirus 1, HEL, virus d, HEL cells
vaccinia virus = assay: microbe, parasite or virus in culture; settings: Orthopoxvirus vaccinia, HEL
[3] = tested on: Vesicular stomatitis virus; assay: microbe, parasite or virus in culture; settings: HEL
feline herpes virus = assay: organism not typed; settings: CRFK, virus o, CRFK cells
influenza B = assay: Antiviral assay, inhibition of virus-induced cytopathic effect, MDCK cells
[4] = tested on: Vesicular stomatitis virus; assay: microbe, parasite or virus in culture; settings: HeLa
[5] = virus q, influenza A H3N2 subtype, MDCK cells
[6] = virus p, influenza A H1N1 subtype, MDCK cells

Q: Which results are given for Nc1ncnc2c1ncn2C[C@H](O)CO [(S)-DHPA]?
A: EC50 (punta toro virus): > 250 µM; EC50 (coxsakie virus B4): > 250 µM; EC50 (sindbis virus): > 250 µM; EC50 (para-influenza-3 virus): > 250 µM; EC50 (reovirus-1): > 250 µM; EC50 (coxsackie virus B4): > 250 µM

Q: Which results are given for NC12CC3CC(CC(C3)C1)C2 [Amantidin]?
A: EC50 (influenza A H3N2 subtype; [5]): 4 µM; EC50 (influenza A H1N1 subtype; [6]): 45 µM

Q: Which EC50 [1] does the source give for O=c1[nH]c(=O)n([C@H]2C[C@H](O)[C@@H](CO)O2)cc1/C=C/Br [Brivudine] here?
A: Its EC50 is 50 µM.

Q: What about the EC50 [2] of the same compound?
A: The EC50 was 0.08 µM.

Q: What about the EC50 (vaccinia virus) of the same compound?
A: Its EC50 is 2 µM.

Q: What about the EC50 [3] of the same compound?
A: Its EC50 is over 250 µM.

Q: For Nc1nc(O)c2ncn(COC(CO)CO)c2n1 [Ganciclovir], which EC50 [1] is on record?
A: The EC50 was 0.03 µM.

Q: What about the EC50 [2] of the same compound?
A: The EC50 was 0.03 µM.

Q: What about the EC50 (feline herpes virus) of the same compound?
A: The EC50 was 2.6 µM.

Q: What about the EC50 (vaccinia virus) of the same compound?
A: Its EC50 is over 100 µM.

Q: And the EC50 [3]?
A: The EC50 was over 100 µM.

Q: CCC(CC)O[C@@H]1C=C(C(=O)O)C[C@H](N)[C@H]1NC(C)=O [Oseltamivir-carboxylate] was tested. Which EC50 (influenza B) did it give?
A: Its EC50 is 4 µM.

Q: And the EC50 (influenza A H3N2 subtype; Influenza A virus, H3N2, MDCK)?
A: Its EC50 is 1.7 µM.

Q: What about the EC50 (influenza A H1N1 subtype; Influenza A virus, H1N1, MDCK) of the same compound?
A: The EC50 was 0.07 µM.

Q: NC(=O)c1ncn([C@@H]2O[C@H](CO)[C@@H](O)[C@H]2O)n1 [Ribavirin] was tested. Which EC50 (punta toro virus) did it give?
A: The EC50 was 50 µM.

Q: What about the EC50 [1] of the same compound?
A: The EC50 was 50 µM.

Q: What about the EC50 (coxsakie virus B4) of the same compound?
A: Its EC50 is over 250 µM.

Q: And the EC50 [2]?
A: The EC50 was 10 µM.

Q: What about the EC50 (influenza B) of the same compound?
A: Its EC50 is 9 µM.

Q: What about the EC50 (influenza A H3N2 subtype; Influenza A virus, H3N2, MDCK) of the same compound?
A: The EC50 was 9 µM.

Q: What about the EC50 (vaccinia virus) of the same compound?
A: Its EC50 is 85 µM.

Q: And the EC50 (para-influenza-3 virus)?
A: Its EC50 is 95 µM.

Q: What about the EC50 [4] of the same compound?
A: The EC50 was 10 µM.

Q: And the EC50 (reovirus-1)?
A: Its EC50 is 250 µM.

Q: And the EC50 [3]?
A: Its EC50 is over 250 µM.

Q: And the EC50 (coxsackie virus B4)?
A: Its EC50 is 30 µM.

Q: What about the EC50 (influenza A H1N1 subtype; Influenza A virus, H1N1, MDCK) of the same compound?
A: Its EC50 is 7 µM.

Q: How did the EC50 (influenza A H3N2 subtype; [5]) turn out when CC(N)C12CC3CC(CC(C3)C1)C2 (centres unmarked) [Rimantidin] was run?
A: Its EC50 is 0.8 µM.

Q: And the EC50 (influenza A H1N1 subtype; [6])?
A: Its EC50 is 20 µM.
